This is an account of results in ChEMBL document CHEMBL4043175, “Tetrahydrobenzothiophene carboxamides: Beyond the kinase domain and into the fatty acid realm” (Bioorg Med Chem Lett, 2017).

The inhibition is how much of the control response was suppressed.

The structures appear in SMILES notation. Activity calls are given as the source filed them. No cut-off for these calls is given here. A value given as a limit tells only on which side of the number the result lay.

Test [1] deals with T1, Stearoyl-CoA desaturase (Homo sapiens) (UniProt O00767).
T1 sequence (whole entry): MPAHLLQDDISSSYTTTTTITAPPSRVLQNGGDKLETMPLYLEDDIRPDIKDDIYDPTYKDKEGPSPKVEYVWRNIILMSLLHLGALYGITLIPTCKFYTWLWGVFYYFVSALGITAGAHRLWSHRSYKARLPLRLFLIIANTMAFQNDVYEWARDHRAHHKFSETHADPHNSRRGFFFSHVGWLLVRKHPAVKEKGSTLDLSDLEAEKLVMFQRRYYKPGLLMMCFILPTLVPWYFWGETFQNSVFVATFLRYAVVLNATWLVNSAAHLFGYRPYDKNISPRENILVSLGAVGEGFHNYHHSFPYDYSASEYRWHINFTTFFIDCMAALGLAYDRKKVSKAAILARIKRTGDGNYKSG
Briefly: Inhibition of SCD1 in human HepG2 cells assessed as decrease in cellular elongase index at 10 uM after 72 hrs by gas chromatographic analysis. In kind it is cell-based.

Test [2] addresses T1, Stearoyl-CoA desaturase (Homo sapiens). The test is described as follows: Inhibition of SCD1 in human HepG2 cells assessed as decrease in cellular lipid accumulation at 10 uM after 48 hrs by Oil Red O staining-based assay. In kind it is cell-based.
Test [3] has the same target. The test is described as follows: Inhibition of SCD1 in human HepG2 cells assessed as increase in cellular elongase index at 10 uM after 72 hrs by gas chromatographic analysis. It is filed as cell-based.
For test [4] the target is unchanged. Briefly: Inhibition of SCD1 in human HepG2 cells assessed as decrease in 16:1/16:0 desaturase index at 10 uM after 72 hrs by gas chromatographic analysis. It is filed as cell-based.
For test [5] the target is unchanged. Briefly: Inhibition of SCD1 in human HepG2 cells assessed as decrease in 18:1/18:0 desaturase index AT 10 uM after 72 hrs by gas chromatographic analysis. In kind it is cell-based.
Test [6] has the same target. Briefly: Inhibition of SCD1 in human HepG2 cells assessed as decrease in 16:1/16:0 desaturase index after 72 hrs by gas chromatographic analysis. In kind it is cell-based.
Test [7] has the same target. Briefly: Inhibition of SCD1 in human HepG2 cells assessed as decrease in 18:1/18:0 desaturase index after 72 hrs by gas chromatographic analysis. In kind it is cell-based.
For test [8] the target is unchanged. The test is described as follows: Inhibition of SCD1 in human HepG2 cells assessed as decrease in cellular lipid accumulation at 1 uM after 48 hrs by Oil Red O staining-based assay. It is filed as cell-based.
The target is the same in test [9]. The test is described as follows: Inhibition of SCD1 in human HepG2 cells assessed as increase in cellular elongase index after 72 hrs by gas chromatographic analysis. In kind it is cell-based.
For test [10] the target is unchanged. Briefly: Inhibition of SCD1 in human HepG2 cells assessed as decrease in 16:1/16:0 desaturase index at 1 uM after 72 hrs by gas chromatographic analysis. In kind it is cell-based.
The target of test [11] is Tyrosine-protein kinase ABL1 (Homo sapiens) (UniProt P00519). The test is described as follows: Inhibition of full-length recombinant human N-terminal His-tagged ABL expressed in baculovirus expression system at 10 uM by TR-FRET assay relative to control.
Chain of Tyrosine-protein kinase ABL1 (Homo sapiens) (P00519 whole entry): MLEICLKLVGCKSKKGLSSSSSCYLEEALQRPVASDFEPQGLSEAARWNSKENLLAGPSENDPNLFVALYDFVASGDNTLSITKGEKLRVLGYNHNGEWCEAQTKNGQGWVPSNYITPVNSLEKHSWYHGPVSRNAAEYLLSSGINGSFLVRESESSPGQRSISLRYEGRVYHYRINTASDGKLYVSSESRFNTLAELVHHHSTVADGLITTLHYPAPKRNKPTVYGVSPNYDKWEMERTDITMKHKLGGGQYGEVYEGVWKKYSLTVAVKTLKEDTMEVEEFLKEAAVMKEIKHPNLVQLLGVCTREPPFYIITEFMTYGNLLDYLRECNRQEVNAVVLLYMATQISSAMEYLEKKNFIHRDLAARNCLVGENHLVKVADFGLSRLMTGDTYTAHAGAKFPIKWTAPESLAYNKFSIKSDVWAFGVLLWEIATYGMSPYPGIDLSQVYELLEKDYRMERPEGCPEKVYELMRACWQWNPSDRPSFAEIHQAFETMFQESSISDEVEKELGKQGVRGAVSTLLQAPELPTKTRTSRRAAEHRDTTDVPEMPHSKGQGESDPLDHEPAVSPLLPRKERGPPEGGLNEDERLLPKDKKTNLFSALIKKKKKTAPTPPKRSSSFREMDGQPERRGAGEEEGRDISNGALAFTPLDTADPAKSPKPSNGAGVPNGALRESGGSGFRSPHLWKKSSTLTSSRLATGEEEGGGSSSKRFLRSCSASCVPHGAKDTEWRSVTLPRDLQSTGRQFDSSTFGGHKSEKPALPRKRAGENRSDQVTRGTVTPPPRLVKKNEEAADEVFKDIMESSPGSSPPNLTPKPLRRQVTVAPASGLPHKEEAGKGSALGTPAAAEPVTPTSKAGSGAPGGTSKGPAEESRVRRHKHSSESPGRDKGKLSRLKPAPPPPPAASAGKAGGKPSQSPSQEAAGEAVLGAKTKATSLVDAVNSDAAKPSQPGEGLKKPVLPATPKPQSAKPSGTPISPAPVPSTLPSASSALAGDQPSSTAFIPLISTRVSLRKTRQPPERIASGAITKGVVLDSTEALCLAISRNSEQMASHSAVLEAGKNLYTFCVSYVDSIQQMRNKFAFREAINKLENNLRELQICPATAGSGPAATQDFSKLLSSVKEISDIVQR
Test [12] concerns the target T1, Stearoyl-CoA desaturase (Homo sapiens). Briefly: Inhibition of SCD1 in human HepG2 cells assessed as increase in cellular elongase index at 1 uM after 72 hrs by gas chromatographic analysis. In kind it is cell-based.
Test [13] has the same target. Briefly: Inhibition of SCD1 in human HepG2 cells assessed as decrease in 18:1/18:0 desaturase index at 1 uM after 72 hrs by gas chromatographic analysis. It is filed as cell-based.
For test [14], the target named is Macrophage colony-stimulating factor 1 receptor (Homo sapiens) (UniProt P07333). The test is described as follows: Inhibition of recombinant human N-terminal GST-tagged FMS cytoplasmic domain (538 to 972 residues) expressed in baculovirus expression system at 10 uM by TR-FRET assay relative to control.
Chain of Macrophage colony-stimulating factor 1 receptor (Homo sapiens) (P07333 whole entry, the tested form may be a part): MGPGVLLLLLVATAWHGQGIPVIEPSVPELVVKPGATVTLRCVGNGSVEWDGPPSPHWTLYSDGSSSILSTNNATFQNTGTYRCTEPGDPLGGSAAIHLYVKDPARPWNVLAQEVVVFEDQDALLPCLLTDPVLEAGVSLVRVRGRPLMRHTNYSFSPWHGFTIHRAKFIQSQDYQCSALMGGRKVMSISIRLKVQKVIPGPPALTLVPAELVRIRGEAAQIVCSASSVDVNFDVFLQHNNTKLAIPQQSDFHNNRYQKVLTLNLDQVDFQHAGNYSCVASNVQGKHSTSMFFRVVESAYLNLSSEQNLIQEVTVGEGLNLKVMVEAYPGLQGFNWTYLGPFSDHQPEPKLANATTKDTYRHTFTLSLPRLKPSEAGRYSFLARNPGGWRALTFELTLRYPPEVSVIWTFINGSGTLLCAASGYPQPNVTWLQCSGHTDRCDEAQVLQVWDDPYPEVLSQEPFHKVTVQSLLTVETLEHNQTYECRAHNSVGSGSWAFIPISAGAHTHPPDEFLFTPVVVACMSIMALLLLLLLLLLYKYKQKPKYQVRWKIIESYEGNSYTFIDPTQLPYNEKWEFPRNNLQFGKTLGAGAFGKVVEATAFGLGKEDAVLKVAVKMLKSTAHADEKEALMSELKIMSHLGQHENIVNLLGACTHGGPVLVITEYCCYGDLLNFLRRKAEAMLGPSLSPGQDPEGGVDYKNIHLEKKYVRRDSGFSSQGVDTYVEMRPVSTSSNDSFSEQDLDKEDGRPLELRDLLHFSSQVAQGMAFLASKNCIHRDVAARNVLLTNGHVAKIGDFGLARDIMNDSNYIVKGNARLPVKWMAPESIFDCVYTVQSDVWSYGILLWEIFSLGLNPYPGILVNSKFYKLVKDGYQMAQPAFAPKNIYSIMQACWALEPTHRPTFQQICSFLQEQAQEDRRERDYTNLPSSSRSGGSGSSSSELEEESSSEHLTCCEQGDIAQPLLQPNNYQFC
Test [15] concerns the target Receptor-type tyrosine-protein kinase FLT3 (Homo sapiens) (UniProt P36888). The test is described as follows: Inhibition of recombinant human N-terminal GST-tagged FLT3 cytoplasmic domain (564 to 993 residues) expressed in baculovirus expression system at 10 uM by TR-FRET assay relative to control.
The target in test [16] is Tyrosine-protein kinase JAK2 (Homo sapiens) (UniProt O60674). The test is described as follows: Inhibition of recombinant human N-terminal His-tagged JAK2 catalytic domain (826 to 1132 residues) expressed in baculovirus expression system at 10 uM by TR-FRET assay relative to control.
Chain of Tyrosine-protein kinase JAK2 (Homo sapiens) (O60674 whole entry, the tested form may be a part): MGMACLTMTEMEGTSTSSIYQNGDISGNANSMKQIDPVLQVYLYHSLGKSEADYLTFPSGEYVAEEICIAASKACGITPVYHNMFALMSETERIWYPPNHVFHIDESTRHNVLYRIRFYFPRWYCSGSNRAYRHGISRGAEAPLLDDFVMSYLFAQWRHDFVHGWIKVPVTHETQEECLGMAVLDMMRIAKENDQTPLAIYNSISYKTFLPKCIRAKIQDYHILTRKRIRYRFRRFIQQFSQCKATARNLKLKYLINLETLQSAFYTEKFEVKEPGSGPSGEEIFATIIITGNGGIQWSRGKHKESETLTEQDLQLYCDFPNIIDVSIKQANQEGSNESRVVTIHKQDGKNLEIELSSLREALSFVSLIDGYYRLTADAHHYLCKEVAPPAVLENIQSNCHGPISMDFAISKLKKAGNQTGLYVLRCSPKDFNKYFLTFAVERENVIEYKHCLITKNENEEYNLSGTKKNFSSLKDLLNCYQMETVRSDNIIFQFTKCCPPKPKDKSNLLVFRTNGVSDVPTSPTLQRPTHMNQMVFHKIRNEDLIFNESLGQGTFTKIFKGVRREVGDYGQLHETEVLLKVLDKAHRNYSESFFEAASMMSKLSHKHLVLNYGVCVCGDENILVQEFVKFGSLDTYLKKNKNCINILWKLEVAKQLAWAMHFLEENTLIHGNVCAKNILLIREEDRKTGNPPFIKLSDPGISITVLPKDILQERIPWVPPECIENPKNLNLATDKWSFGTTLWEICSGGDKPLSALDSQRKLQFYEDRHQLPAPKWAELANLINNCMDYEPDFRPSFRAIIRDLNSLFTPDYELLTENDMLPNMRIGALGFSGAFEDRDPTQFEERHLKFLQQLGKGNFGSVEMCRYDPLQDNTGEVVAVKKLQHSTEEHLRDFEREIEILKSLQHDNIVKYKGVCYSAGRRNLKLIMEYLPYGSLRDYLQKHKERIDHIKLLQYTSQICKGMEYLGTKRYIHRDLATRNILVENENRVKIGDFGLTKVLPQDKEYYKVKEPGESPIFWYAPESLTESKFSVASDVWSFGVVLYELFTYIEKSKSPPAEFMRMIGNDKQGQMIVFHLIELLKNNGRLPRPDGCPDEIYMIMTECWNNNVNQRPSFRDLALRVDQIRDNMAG

Chain of Receptor-type tyrosine-protein kinase FLT3 (Homo sapiens) (P36888 whole entry, the tested form may be a part): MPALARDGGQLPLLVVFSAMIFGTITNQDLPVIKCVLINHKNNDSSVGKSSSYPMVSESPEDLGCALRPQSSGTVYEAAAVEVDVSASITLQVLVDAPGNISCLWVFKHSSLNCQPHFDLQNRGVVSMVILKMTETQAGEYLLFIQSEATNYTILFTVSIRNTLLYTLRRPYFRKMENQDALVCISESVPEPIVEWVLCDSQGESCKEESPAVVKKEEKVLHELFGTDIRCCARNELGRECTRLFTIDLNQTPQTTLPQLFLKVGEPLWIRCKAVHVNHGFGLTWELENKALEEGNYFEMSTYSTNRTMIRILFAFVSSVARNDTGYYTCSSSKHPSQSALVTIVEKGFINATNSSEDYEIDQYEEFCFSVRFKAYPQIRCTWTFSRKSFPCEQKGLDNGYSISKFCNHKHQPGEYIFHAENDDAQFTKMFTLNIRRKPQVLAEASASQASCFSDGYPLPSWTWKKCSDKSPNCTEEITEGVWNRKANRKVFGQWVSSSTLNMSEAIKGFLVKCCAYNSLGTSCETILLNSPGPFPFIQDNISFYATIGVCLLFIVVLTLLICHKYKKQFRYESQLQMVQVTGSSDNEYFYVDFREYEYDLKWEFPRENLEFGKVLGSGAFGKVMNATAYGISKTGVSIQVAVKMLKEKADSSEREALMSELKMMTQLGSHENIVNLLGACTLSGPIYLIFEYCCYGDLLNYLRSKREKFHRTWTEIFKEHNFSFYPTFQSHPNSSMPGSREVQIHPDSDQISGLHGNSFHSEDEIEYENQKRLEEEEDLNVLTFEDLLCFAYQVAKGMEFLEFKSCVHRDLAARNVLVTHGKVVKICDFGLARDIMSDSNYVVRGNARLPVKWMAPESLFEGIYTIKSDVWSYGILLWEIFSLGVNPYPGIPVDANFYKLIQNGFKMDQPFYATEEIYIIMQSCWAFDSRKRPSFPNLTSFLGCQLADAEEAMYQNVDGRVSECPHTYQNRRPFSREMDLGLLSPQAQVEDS

Take `CN(C)Cc1ccc(-c2nc3sc4c(c3c(=O)[nH]2)CCC(CO)C4)cc1` (stereo not given): the inhibition result in test [1] is “Active”. For the same compound, the inhibition result in test [2] is “inactive”.

Turning to `NC(=O)c1c(NC(=O)c2ccc(CN3CCCCC3)cc2)sc2c1CCC(CO)C2` (stereo not given), the inhibition result in [3], in [4] and in test [5] was “Active” throughout. The inhibition result in [6] and in test [7] was “Dose-dependent effect” in each case.

With `O=c1[nH]c(-c2ccc(CN3CCS(=O)(=O)CC3)cc2)nc2sc3c(c12)CCC(CO)C3` (stereo not given), the inhibition result in [1] was “Active”.

As for `NC(=O)c1c(NC(=O)c2ccc(CN3CCOCC3)cc2)sc2c1CCCC2CCO` (stereo not given), the inhibition entry in [1] was “Active”.

As to `NC(=O)c1c(N)sc2c1CCC(CO)C2` (stereo not given), the inhibition entry in [1] was “Active”.

Regarding `CN(C)Cc1ccc(C(=O)Nc2sc3c(c2C(N)=O)CCC(CO)C3)cc1` (stereo not given), the inhibition result in test [3], in test [4] and in [5] was “Active” each time. Further, the inhibition entry in test [6] and in test [7] was “Dose-dependent effect” in each case.

Take `NC(=O)c1c(NC(=O)c2ccc(CN3CCOCC3)cc2)sc2c1CCC(c1ccc(O)cc1)C2` (stereo not given): the inhibition entry in [3] was “inactive”.

For the compound `Cc1nnc(-c2ccc(N3CCC(Oc4cc(F)ccc4Cl)CC3)nn2)o1`, the inhibition result in [8], in test [3], in [4] and in [5] was “Active” in each case. Moreover, the inhibition entry in test [9], in test [6] and in test [7] was “Dose-dependent effect” each time.

With `NC(=O)c1c(NC(=O)c2ccc(CN3CCOCC3)cc2)sc2c1CCCC2`, in test [1], the inhibition entry is “Active”.

Turning to `O=c1[nH]c(-c2ccc(CN3CCOCC3)cc2)nc2sc3c(c12)CCC(CO)C3` (stereo not given), the inhibition entry in test [3], in test [4] and in test [5] was “Active” each time. The inhibition result in test [6] and in test [7] was “Dose-dependent effect” throughout.

For `NC(=O)c1c(NC(=O)c2ccc(CN3CCOCC3)cc2)sc2c1CCC(C(=O)O)C2` (stereo not given), the inhibition entry in test [3] is “inactive”.

Turning to `CCOC(=O)C1CCc2c(sc(NC(=O)c3ccc(CN4CCOCC4)cc3)c2C(N)=O)C1` (stereo not given), the inhibition entry in test [1] was “Active”.

On to `NC(=O)c1c(NC(=O)c2ccc(CN3CCS(=O)(=O)CC3)cc2)sc2c1CCC(CO)C2` (stereo not given), for which the inhibition result in [3], in [4] and in test [5] was “Active” throughout. Moreover, the inhibition entry in test [6] and in test [7] was “Dose-dependent effect” each time.

Turning to `NC(=O)c1c(NC(=O)c2ccc(CN3CCOCC3)cc2)sc2c1CCC(CO)C2` (stereo not given), the inhibition entry in test [3], in test [10], in test [4], in test [5], in test [12] and in test [13] was “Active” each time. Further, in [2], the inhibition result is “Active”. The inhibition is more than 80% in [11]; “Dose-dependent effect” in test [6]; more than 80% in test [14]; “Dose-dependent effect” in test [7]; more than 80% in test [15]; 45% in [16].

With `O=c1[nH]c(-c2ccc(CN3CCCCC3)cc2)nc2sc3c(c12)CCC(CO)C3` (stereo not given), in test [1], the inhibition entry was “Active”.
